The source made the active and inactive calls.
Key:
[1] = target: Heat shock protein HSP 90-alpha (Homo sapiens, UniProt P07900); format: functional, organism-based
Cytochrome P450 2C9 = Cytochrome P450 2C9 (Homo sapiens, UniProt P11712)
Cytochrome P450 2D6 = Cytochrome P450 2D6 (Homo sapiens, UniProt P10635);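 note: CYP2D6 member of a cytochrome P450 panel assay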
Cytochrome P450 1A2 = target: T1, Cytochrome P450 1A2 (Homo sapiens, UniProt P05177);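 note: PubChem cytochrome P450 panel assay, CYP1A2 panel member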
T1 sequence (P05177 whole entry): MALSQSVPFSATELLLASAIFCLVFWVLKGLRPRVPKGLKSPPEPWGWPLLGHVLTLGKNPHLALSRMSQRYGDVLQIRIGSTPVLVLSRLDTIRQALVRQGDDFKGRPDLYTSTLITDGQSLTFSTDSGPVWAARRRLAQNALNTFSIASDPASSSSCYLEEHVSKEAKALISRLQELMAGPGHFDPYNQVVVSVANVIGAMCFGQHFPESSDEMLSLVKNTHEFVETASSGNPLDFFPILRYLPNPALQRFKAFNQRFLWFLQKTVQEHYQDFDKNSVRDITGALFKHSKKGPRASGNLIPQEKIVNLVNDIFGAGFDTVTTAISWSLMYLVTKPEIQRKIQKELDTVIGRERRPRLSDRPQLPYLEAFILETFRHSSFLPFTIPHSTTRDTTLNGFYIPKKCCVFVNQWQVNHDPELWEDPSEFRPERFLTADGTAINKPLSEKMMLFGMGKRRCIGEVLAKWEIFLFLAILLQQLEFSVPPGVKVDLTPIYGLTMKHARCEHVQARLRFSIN

[2] = target: T2, Calpain-2 catalytic subunit (Sus scrofa, UniProt P43367); assay: pig calpain II inhibitor potency, dose response, biochemical, fluorogenic peptide substrate (AID 1420); format: functional
T2 sequence (P43367 whole entry): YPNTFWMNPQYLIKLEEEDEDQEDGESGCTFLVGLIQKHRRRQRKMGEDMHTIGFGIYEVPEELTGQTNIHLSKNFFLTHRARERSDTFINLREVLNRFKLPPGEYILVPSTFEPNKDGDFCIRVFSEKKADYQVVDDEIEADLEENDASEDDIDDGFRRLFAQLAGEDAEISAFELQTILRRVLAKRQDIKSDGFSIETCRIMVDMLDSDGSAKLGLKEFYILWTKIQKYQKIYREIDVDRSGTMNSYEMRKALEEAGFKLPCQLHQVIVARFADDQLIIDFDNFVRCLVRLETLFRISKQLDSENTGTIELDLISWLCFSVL

H9c2 = assay: cells; format: functional, cell-based; conditions: Rattus norvegicus, H9c2, Myocardium;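 note: confirmatory concentration-response retest of ultra-high-throughput screening hits for modulation of myocardial damage; cell death induced by hydrogen peroxide oxidative stress; compound pretreatment for 60 min then peroxide exposure for 2 h; potency is for protecting the cells against peroxide damage rather than for killing them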
[3] = Luminescence Cell-Based Dose Confirmation HTS to Identify Inhibitors of Platelet Dense Granule Release. [Related pubchem assays: 1663 (Primary HTS), 1678 (Summary of Project)]; format: functional
[4] = target: Luciferin 4-monooxygenase (Photinus pyralis, UniProt P08659); assay: firefly luciferase enzyme inhibitors, dose response, biochemical, luminescence (AID 1891)
Chain of Luciferin 4-monooxygenase (P08659 whole entry): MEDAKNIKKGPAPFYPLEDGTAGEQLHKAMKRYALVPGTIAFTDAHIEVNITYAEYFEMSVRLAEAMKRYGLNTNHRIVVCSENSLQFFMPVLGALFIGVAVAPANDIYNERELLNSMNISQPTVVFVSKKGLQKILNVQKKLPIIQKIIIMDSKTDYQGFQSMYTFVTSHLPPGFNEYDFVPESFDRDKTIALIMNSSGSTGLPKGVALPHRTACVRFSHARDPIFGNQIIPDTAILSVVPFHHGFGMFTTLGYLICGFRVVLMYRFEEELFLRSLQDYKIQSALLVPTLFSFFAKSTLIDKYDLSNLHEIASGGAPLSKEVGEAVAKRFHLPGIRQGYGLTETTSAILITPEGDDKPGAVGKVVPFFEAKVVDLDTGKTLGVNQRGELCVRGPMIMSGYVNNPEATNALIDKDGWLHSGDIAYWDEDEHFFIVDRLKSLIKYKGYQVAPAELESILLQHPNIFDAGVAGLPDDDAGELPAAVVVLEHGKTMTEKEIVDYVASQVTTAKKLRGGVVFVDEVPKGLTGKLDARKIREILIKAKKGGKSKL

[5] = target: T3, Heat shock factor protein 1 (Mus musculus, UniProt P38532); assay: HSF1 potentiators in luciferase reporter cells, confirmation, cell-based, NIH3T3, luminescence, dose retest (AID 435004); format: functional;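 note: stress induced by proteasome inhibitor MG132 added 30 min after compound; luciferase reporter driven by HSF1 response element in NIH3T3 cells; actives raise luminescence as potentiators of the MG132 stress response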
T3 sequence (P38532 whole entry): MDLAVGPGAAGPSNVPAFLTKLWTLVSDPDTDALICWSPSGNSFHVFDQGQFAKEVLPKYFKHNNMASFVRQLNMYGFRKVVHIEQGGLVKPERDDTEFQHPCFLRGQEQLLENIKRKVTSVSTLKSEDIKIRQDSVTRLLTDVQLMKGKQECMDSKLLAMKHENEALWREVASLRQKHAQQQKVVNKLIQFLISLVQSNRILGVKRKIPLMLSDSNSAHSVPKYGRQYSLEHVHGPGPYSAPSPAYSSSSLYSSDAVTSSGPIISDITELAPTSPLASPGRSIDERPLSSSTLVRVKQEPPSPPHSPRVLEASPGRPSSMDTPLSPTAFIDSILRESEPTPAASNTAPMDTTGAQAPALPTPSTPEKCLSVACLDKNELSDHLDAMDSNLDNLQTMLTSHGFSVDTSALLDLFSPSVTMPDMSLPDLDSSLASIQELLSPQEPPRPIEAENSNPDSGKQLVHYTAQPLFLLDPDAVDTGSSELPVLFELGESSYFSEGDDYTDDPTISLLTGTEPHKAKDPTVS

[6] = inhibitors of firefly luciferase expression or activity, dose response, H4 neuroglioma cells, luminescence (AID 1990); format: functional, cell-based
[7] = microbe, parasite or virus in culture; format: functional; conditions: Mycobacterium tuberculosis
[8] = Luminescence Cell-Based Dose Response HTS to Identify Inhibitors of 5'UTR Stem-Loop Driven Prion Protein mRNA Translation in H4 Neuroglioblastoma Cells. [Related pubchem assays: 1827 (Project Summary), 1813 (Primary HTS)]; format: functional
[9] = Luminescence Cell-Based Dose Retest to Confirm Inhibitors of Cancer Stem Cells. [Related pubchem assays (depositor defined):AID2717, AID2721]; format: functional; conditions: Homo sapiens
[10] = inhibitors of SNCA 5'UTR-driven reporter translation, confirmation, H4 neuroglioma cells, luminescence (AID 1988); format: functional, cell-based
Cytochrome P450 2C19 = Cytochrome P450 2C19 (Homo sapiens, UniProt P33261); assay: Cytochrome panel assay with activity outcomes. Panel member name: p450-cyp2c19 Compounds with AC50 equal or less than 10 uM are considered active; format: functional; conditions: read-out: AC50
Chain of Cytochrome P450 2C19 (P33261 whole entry): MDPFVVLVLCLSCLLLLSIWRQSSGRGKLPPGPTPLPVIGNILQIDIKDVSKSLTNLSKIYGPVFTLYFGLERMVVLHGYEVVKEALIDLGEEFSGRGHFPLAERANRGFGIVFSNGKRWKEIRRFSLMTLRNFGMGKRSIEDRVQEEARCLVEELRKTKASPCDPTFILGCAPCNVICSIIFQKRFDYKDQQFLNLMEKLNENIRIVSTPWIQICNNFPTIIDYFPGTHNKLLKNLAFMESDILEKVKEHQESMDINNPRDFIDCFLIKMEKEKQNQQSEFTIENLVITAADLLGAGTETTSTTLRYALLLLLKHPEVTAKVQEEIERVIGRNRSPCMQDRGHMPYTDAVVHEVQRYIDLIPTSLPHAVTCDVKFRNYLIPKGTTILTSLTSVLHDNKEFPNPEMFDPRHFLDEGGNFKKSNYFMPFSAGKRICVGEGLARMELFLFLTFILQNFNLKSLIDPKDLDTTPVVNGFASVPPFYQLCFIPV

Cytochrome P450 3A4 = Cytochrome P450 3A4 (Homo sapiens, UniProt P08684);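 note: CYP3A4 tested as one member of a cytochrome P450 panel screen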
Chain of Cytochrome P450 3A4 (P08684 whole entry): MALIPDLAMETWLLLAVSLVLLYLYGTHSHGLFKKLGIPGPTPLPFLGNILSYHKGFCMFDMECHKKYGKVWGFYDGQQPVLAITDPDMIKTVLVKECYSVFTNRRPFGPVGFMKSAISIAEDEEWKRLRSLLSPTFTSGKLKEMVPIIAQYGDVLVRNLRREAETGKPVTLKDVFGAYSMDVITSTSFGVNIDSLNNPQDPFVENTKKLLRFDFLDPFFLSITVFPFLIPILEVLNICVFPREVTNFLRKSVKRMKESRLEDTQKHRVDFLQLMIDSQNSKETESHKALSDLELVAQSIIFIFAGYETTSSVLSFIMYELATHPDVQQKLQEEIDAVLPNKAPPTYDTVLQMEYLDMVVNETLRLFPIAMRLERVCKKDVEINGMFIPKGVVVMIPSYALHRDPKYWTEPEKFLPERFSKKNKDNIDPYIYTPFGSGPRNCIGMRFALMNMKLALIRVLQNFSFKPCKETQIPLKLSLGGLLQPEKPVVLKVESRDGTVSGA

[11] = target: T4, Ubiquitin-conjugating enzyme E2 N (Homo sapiens, UniProt P61088); format: functional;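 note: Dose-response confirmation in a TR-FRET assay detecting UBC13-driven polyubiquitin chain formation, inhibition measured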
T4 sequence (P61088 whole entry): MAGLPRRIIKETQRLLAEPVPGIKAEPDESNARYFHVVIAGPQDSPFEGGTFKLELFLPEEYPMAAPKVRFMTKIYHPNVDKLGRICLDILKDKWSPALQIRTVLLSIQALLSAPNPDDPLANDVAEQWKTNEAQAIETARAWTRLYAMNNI

Fatty acid synthase = Fatty acid synthase (Homo sapiens, UniProt P49327); assay: FAS thioesterase domain inhibitors, dose response, biochemical, kinetic fluorescence intensity (AID 624326); format: functional;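 note: rate of fluorescence rise from hydrolysis of a fluorogenic O-methyl fluorescein ester substrate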
Chain of Fatty acid synthase (P49327 whole entry, the tested form may be a part): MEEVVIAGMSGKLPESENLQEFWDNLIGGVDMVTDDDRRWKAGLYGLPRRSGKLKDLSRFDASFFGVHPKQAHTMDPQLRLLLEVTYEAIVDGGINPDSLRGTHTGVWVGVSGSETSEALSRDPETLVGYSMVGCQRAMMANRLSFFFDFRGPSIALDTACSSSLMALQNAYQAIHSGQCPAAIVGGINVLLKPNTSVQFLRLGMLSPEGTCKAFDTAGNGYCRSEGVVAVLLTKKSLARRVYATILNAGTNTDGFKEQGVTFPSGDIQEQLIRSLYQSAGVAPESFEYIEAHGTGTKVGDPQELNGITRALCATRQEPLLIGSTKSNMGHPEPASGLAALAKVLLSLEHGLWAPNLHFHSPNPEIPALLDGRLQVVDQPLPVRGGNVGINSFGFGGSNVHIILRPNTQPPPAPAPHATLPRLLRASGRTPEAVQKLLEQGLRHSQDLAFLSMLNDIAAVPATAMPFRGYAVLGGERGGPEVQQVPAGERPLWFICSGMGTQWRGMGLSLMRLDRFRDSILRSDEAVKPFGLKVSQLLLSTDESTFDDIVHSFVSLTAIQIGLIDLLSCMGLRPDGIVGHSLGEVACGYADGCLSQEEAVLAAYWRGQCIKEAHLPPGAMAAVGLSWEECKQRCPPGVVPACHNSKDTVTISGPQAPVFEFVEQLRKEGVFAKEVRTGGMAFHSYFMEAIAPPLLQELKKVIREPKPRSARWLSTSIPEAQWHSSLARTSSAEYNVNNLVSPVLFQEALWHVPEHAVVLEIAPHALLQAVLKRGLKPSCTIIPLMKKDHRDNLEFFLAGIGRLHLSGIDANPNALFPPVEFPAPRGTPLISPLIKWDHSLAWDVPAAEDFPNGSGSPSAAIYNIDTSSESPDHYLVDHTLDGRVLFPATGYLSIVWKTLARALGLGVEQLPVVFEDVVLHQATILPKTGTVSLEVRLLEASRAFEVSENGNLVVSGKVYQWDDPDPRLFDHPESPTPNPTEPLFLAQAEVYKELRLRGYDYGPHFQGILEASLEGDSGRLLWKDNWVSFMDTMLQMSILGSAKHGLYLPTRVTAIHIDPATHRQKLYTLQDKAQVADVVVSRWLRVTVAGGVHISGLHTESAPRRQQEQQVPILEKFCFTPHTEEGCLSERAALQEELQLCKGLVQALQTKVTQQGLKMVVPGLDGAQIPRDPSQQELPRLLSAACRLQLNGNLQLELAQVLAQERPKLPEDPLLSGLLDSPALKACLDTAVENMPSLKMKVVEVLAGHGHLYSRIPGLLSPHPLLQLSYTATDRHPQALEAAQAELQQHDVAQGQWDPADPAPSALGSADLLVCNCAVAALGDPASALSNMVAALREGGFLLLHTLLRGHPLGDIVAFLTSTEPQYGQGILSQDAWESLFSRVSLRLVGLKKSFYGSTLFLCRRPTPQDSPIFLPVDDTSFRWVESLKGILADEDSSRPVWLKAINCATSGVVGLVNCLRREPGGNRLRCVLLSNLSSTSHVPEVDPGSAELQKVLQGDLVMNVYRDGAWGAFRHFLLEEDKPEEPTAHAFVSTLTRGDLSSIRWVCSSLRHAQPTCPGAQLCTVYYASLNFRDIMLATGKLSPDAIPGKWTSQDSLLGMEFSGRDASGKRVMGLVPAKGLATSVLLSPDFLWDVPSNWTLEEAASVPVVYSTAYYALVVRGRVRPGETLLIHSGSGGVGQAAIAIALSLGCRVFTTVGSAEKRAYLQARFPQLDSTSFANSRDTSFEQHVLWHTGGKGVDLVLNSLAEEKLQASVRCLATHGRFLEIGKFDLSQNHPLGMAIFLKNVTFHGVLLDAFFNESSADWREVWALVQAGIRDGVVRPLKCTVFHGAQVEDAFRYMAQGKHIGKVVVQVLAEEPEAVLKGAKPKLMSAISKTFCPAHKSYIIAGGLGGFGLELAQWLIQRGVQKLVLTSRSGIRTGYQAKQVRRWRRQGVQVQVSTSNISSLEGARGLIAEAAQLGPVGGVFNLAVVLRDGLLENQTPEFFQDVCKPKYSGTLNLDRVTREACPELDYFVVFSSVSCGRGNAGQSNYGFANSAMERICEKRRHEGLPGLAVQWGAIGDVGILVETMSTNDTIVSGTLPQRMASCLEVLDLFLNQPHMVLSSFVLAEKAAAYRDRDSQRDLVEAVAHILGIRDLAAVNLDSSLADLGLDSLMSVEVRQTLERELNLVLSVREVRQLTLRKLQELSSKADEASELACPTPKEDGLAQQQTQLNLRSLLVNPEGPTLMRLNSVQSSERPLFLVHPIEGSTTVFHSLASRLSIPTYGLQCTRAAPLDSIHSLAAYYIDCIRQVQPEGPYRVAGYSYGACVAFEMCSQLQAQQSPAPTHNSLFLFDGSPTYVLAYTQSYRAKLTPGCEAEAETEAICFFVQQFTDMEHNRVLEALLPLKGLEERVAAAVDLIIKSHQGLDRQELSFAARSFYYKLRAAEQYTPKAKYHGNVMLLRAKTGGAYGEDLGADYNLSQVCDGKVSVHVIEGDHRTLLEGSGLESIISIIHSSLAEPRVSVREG

Streptococcus = assay: Group A Streptococcus viability loss, dose response, counter-screen for streptokinase expression inhibitor project, luminescence, BacTiterGlo (AID 1915); format: functional, organism-based;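 note: potency for reduction of bacterial viability or growth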
[12] = test system: Streptococcus sp. 'group A'; assay: growth inhibition of control SK(-) GAS strain, dose response, counter-screen for streptokinase expression inhibitor project, luminescence, kanamycin, BacTiterGlo, confirmation (AID 1900); format: functional, organism-based
[13] = P. falciparum Dd2 growth inhibitors, dose response, SYBR Green, cherry-picked samples (AID 1159567); format: functional, cell-based

Chain of Cytochrome P450 2D6 (P10635 whole entry): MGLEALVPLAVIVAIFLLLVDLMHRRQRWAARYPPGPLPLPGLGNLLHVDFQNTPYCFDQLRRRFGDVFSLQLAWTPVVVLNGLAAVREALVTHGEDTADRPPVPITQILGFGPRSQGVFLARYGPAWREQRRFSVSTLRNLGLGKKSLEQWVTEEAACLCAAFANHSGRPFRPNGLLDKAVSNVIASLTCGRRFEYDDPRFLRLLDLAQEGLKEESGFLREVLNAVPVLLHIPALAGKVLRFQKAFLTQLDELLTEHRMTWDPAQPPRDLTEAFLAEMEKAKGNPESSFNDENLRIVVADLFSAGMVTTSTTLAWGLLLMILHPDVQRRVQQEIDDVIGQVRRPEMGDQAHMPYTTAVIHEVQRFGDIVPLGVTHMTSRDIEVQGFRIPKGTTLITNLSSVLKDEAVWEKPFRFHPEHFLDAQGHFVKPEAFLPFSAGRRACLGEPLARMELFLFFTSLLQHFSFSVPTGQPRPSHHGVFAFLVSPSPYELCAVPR
Chain of Cytochrome P450 2C9 (P11712 whole entry): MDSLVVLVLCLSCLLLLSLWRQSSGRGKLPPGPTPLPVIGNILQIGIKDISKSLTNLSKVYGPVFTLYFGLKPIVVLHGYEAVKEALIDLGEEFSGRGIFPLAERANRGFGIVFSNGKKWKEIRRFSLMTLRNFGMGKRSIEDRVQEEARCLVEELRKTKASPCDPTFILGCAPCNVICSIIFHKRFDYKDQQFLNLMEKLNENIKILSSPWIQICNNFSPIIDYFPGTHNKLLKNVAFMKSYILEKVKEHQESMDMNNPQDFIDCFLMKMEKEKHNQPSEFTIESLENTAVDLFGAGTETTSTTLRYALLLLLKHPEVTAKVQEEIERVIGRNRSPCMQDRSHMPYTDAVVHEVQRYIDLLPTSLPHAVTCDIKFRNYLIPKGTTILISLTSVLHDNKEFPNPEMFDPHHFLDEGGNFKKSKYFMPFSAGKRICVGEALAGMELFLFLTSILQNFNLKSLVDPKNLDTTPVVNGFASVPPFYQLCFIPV

O=[N+]([O-])c1cc(-n2cnnn2)ccc1N1CCC(Cc2ccccc2)CC1
AC50 [1]: 4.38 µM (active)

N#Cc1cccc(-c2nc3cnc(Nc4ccccc4)nc3n(C[C@H]3CCCO3)c2=O)c1
AC50 (Cytochrome P450 2C9): 10 µM (inconclusive) | AC50 (Cytochrome P450 2D6): 1 µM (inconclusive) | AC50 (Cytochrome P450 1A2): 2 µM (inconclusive)

CC1CCN(c2nc3nonc3nc2Nc2ccc(F)cc2)CC1
IC50 [2]: 11.7 µM (not active)

CC(C)n1nc(C(=O)OCC(=O)c2c[nH]c3ccccc23)c2ccccc2c1=O
IC50 (H9c2): 27.3 µM (active) | IC50 [2]: 0.91 µM (not active)

Oc1nc(NCc2ccccc2)nc2c1CCCC2
IC50 (H9c2): 52.3 µM (inactive)

CN(CC(=O)Nc1ccccc1Br)C(=O)C(Cc1ccccc1)NC(=O)c1ccccc1 (configuration not stated)
EC50 [3]: > 112 µM (not active) | EC50 [4]: > 112 µM (not active)

Cc1ccc(S(=O)(=O)N(C)c2ccc(C)c([N+](=O)[O-])c2)cc1
IC50 [2]: 18.8 µM (not active) | EC50 [5]: > 260 µM (inactive)

CCc1c(C2(O)CCCCC2)[nH]c2ccc(C(F)(F)F)cc12
EC50 [6]: 60.5 µM (active) | CC50 [7]: 27.1 µM (active) | EC50 [8]: > 120 µM (not active) | AC50 [9]: 2.64 µM (active) | EC50 [10]: 8.44 µM (active)

O=C(NCC1CCCO1)c1cc([N+](=O)[O-])ccc1N1CCC(Cc2ccccc2)CC1 (configuration not stated)
AC50 [1]: 4.28 µM (active)

COc1ccc(CCNC(=O)C[S+]([O-])Cc2nc(-c3ccc(C)cc3)oc2C)cc1OC (configuration not stated)
EC50 [3]: > 112 µM (not active) | EC50 [4]: > 112 µM (not active)

O=C(COC(=O)Cc1nnc(O)c2ccccc12)Nc1ccc(Cl)cn1
IC50 (H9c2): > 79 µM (inactive)

COC(=O)[C@@]1(Cc2ccccc2)[C@H]2c3cc(C(=O)N4CCCC4)n(CCN4CNCC4=O)c3C[C@H]2CN1C(=O)c1ccccc1
AC50 (Cytochrome P450 2C19): 39.8 µM (inconclusive) | AC50 (Cytochrome P450 3A4): 1.58 µM (inconclusive) | AC50 (Cytochrome P450 2D6): 39.8 µM (inconclusive) | AC50 (Cytochrome P450 1A2): 25.1 µM (inconclusive)

COc1ccccc1N(C)S(=O)(=O)c1ccc(C(=O)Nc2ccc3nc(C)sc3c2)cc1
CC50 [7]: 38.1 µM (active)

Cc1c(CCC(=O)NCCCn2ccnc2)c(=O)oc2c(C)c3occ(C(C)(C)C)c3cc12
CC50 [7]: 22.1 µM (active)

CCOC(=O)C1CCN(C(c2cc3c(C)ccc(C)c3nc2O)c2nnnn2C2CCCCC2)CC1 (configuration not stated)
IC50 (H9c2): > 79 µM (inactive)

Cc1ccc(C(C(=O)NCC2CCCO2)N(C(=O)c2snc(C(N)=O)c2N)c2ccc(C)c(C)c2)o1 (configuration not stated)
IC50 [11]: > 20 µM (inactive)

Cn1cnc([N+](=O)[O-])c1Nc1ccccc1O
EC50 [3]: > 112 µM (not active) | EC50 [4]: > 112 µM (not active)

FC(F)(F)c1nnc2ccc(NCc3ccccc3)nn12
IC50 [2]: 2.23 µM (active)

CCCc1nc2oc(C(=O)OCC)c(N)c2c2c1COC(C)(C)C2
CC50 [7]: > 40 µM (active)

CC(C)C(=O)Nc1ncc(Cc2ccc(Cl)cc2)s1
IC50 [2]: 5.63 µM (not active)

Cc1ccc(C2SCCN2C(=O)c2ccc([N+](=O)[O-])cc2)cc1 (configuration not stated)
EC50 [3]: > 112 µM (not active) | EC50 [4]: > 112 µM (not active)

CN(C(=O)Nc1ccc(Cl)cc1Cl)[C@H]1c2cc(Br)ccc2OC[C@H]1CO
IC50 (Fatty acid synthase): 11.3 µM (active)

Oc1ccccc1C1=NN(c2ccccc2)C(c2ccccc2)C1 (configuration not stated)
AC50 [1]: 4.3 µM (active) | EC50 (Streptococcus): 6.93 µM (active) | AC50 [9]: 1.29 µM (active) | EC50 [12]: 4.06 µM (active)

C#CCNC(=O)C1=C[C@H](c2cn(C(C)=O)c3ccccc23)C[C@H](OCc2ccc(CO)cc2)O1
IC50 [11]: > 20 µM (inactive)

Cc1ccc(-c2noc(CCC(=O)Nc3ccccc3N3CCN(C)CC3)n2)cc1
IC50 [11]: > 20 µM (inactive)

O=C(CCc1nc(O)c2ccccc2n1)NNC(=O)COc1cccc(F)c1
IC50 (H9c2): > 79 µM (inactive)

O=C(Nc1ccccc1)c1nc[nH]c1C(=O)NCCCCNC(=O)c1nc[nH]c1C(=O)Nc1ccccc1
IC50 (H9c2): > 79 µM (inactive)

CSCCC(NC(=O)c1ccccc1Cl)C(=O)NNC(=O)c1csc(N2CCOCC2)n1 (configuration not stated)
IC50 [11]: > 20 µM (inactive)

NC(=O)c1cccc(Nc2nc(C(N)COCc3ccccc3)cs2)n1 (configuration not stated)
IC50 (H9c2): 19.8 µM (active)

Cc1cc(C(=O)N/N=C/c2c(CO)cnc(C)c2O)c2ccccc2n1
IC50 (H9c2): > 79 µM (inactive)

CCCCNC(=S)N(C)/N=C/c1ccc2c(c1)OCO2
CC50 [7]: > 40 µM (active) | AC50 [9]: 2.04 µM (active)

COc1ccc(/N=C/c2cc(Cc3ccccc3Cl)cc([N+](=O)[O-])c2O)cc1OC
AC50 [1]: 1.6 µM (active)

CCOC(=O)c1ccc(/N=C2/S/C(=C\c3cc(C)n(-c4cccnc4)c3C)C(=O)N2C)cc1
CC50 [7]: > 40 µM (active)

C[C@H]1CN([C@@H](C)CO)C(=O)c2c(c3ccccc3n2C)-c2ccccc2CO[C@@H]1CN(C)Cc1cccc(O)c1
AC50 [13]: 3.24 µM (active)

CCCC#Cc1ccc(CC[C@H]2O[C@H]3CC[C@H](CO)O[C@H]3C[C@@H]2n2cc(C(C)(C)O)nn2)cc1
AC50 [13]: 16.8 µM (active)

CC(C)NC(=O)N1[C@H](C#N)[C@H](c2ccccc2-c2ccc(F)cc2)[C@@H]1CO
AC50 [13]: 3.57 µM (active)

N#Cc1cccc(-c2ccc([C@@H]3[C@@H]4CN(C(=O)C5CCC5)C[C@H]3N4)cc2)c1
AC50 [13]: 3.71 µM (active)

C[C@@H]1CN([C@@H](C)CO)C(=O)c2c(c3ccccc3n2C)-c2ccccc2CO[C@H]1CN(C)Cc1cccc(C(=O)Nc2ccccc2N)c1
AC50 [13]: 2.81 µM (active)

— ChEMBL document CHEMBL1201862, “PubChem BioAssay data set” (2004)
